This passage reports EC50 results from patent US12162867B2, “Inhibitors of RNA helicase DHX9 and uses thereof” (ACCENT THERAPEUTICS, INC., priority 2022, dated 2024).

The first experiment has as its system circBRIP1 in HCT116 cells. Put plainly: DHX9 circBRIP1 cellular target engagement SYBR Green assay (qPCR). Type of experiment: cell-based. Conditions: Homo sapiens, HCT-116, circBRIP1, HCT116 cells; SyBr assay (marked ^+); read-out: DHX9 Cellular Target Engagement EC50.
Broadly, the EC50 is the concentration needed to bring the measured effect to its halfway point. Consider `CS(=O)(=O)Nc1cc(Cl)cc(NC(=O)c2cc3c(F)cccn3c2)c1` [Example 305], for which the EC50 is 3.33 µM.
Same read-out and setting: the figure for `CS(=O)(=O)Nc1cc(Cl)cc(NC(=O)c2cc(-c3ccccc3)co2)c1` [Example 7] is 24.2 µM; for `Cc1cc(C(=O)Nc2cc(Cl)cc(NS(C)(=O)=O)c2)cn1-c1ccc(N(C)C2CCOC2)cn1` (stereo not drawn) [Example 269] it is 0.037 µM.
On the same count and under the same terms, the figure for `CSc1ccc(-n2cc(C(=O)Nc3cc(Cl)cc(NS(C)(=O)=O)c3)cn2)nc1` [Example 218] is 1.39 µM; for `CS(=O)(=O)Nc1cc(Cl)cc(NC(=O)c2nc(-c3ccccc3)c[nH]2)c1` [Example 9] it is 30 µM; for `Cc1cc(C(=O)Nc2cc(Cl)cc(NS(=O)(=O)C3CC3)c2)cn1-c1ccc(N2CCOCC2)cn1` [Example 247] it is 2.24 µM.
Same read-out and setting: the same measure for `CS(=O)(=O)Nc1cc(Cl)cc(NC(=O)c2cnn([C@@H]3CCCC[C@@H]3O)c2)c1` (relative stereo) [Example 153, N-(3-chloro-5-(methylsulfonamido)phenyl)-1-(2-cis-hydroxycyclohexyl)-1H-pyrazole-4-carboxamide]: 6.11 µM.
With `CS(=O)(=O)Nc1cc(Cl)cc(NC(=O)c2cnn(C3CC4(CC(N)C4)C3)c2)c1` (stereo not drawn) [Example 319], the EC50 is more than 10 µM.
The same measure, in the same setting: the figure for `Cc1cc(C(=O)Nc2cc(Cl)cc(NS(C)(=O)=O)c2)cn1C1CCCC1` [Example 282] is 1.88 µM; for `CS(=O)(=O)Nc1cc(Cl)cc(NC(=O)c2cnn([C@H]3CC[C@H]3O)c2)c1` (single isomer, unassigned) [Example 306b] it is more than 10 µM; for `CS(=O)(=O)Nc1cc(Cl)cc(NC(=O)c2cc3c(F)cccc3s2)c1` [Example 296] it is 1.14 µM.
On the same count and under the same terms, the figure for `Cc1cncc2cc(C(=O)Nc3cc(Cl)cc(NS(C)(=O)=O)c3)sc12` [Example 290] is more than 10 µM; for `CS(=O)(=O)Nc1cc(Cl)cc(NC(=O)c2cc(C(F)(F)F)n(-c3ccc(F)cn3)c2)c1` [Example 267] it is 2.26 µM.
On the same count and under the same terms, the same measure for `CC(C)C(=O)N1CCN(c2ccc(-n3cc(C(=O)Nc4cc(Cl)cc(NS(C)(=O)=O)c4)cn3)nc2)CC1` [Example 149, N-(3-chloro-5-(methylsulfonamido)phenyl)-1-(5-(4-isobutyrylpiperazin-1-yl)pyridin-2-yl)-1H-pyrazole-4-carboxamide]: 1.8 µM; for `CS(=O)(=O)Nc1cc(Cl)cc(NC(=O)c2cnn(CCO)c2)c1` [Example 127]: more than 10 µM.
Take `Cc1cccnc1-c1cc(C(=O)Nc2cc(F)cc(NS(C)(=O)=O)c2)sc1C` [Example 333]: the EC50 was determined as 0.421 µM.
Consider `CS(=O)(=O)Nc1cc(Br)cc(NC(=O)c2cnn(-c3cnccn3)c2)c1` [Example 40], for which the 50% effective concentration (EC50) was determined as 1.15 µM.
Same read-out and setting: the figure for `CS(=O)(=O)Nc1cc(Cl)cc(NC(=O)c2cnn(-c3ncccc3Oc3ncccn3)c2)c1` [Example 196] is 6.73 µM; for `COc1cccc2cc(C(=O)Nc3cc(Cl)cc(NS(C)(=O)=O)c3)sc12` [Example 303] it is more than 10 µM.
In the case of `CC(=O)N1CC2(CC(n3cc(C(=O)Nc4cc(Cl)cc(NS(C)(=O)=O)c4)cn3)C2)C1` [Example 313], the concentration giving a half-maximal response (EC50) is more than 10 µM.
In the case of `CS(=O)(=O)Nc1cc(Cl)cc(NC(=O)c2cc(CN)n(-c3ccccn3)c2)c1` [Example 181], the concentration for a half-maximal effect (EC50) amounted to 2.09 µM.
With `CS(=O)(=O)Nc1cc(Cl)cc(NC(=O)c2cnn([C@H]3CC[C@@H](O)CC3)c2)c1` [Example 151, N-(3-chloro-5-(methylsulfonamido)phenyl)-1-((1s,4s)-4-hydroxycyclohexyl)-1H-pyrazole-4-carboxamide], the 50% effective concentration (EC50) was more than 10 µM.
On the same count and under the same terms, the figure for `CS(=O)(=O)Nc1cc(Cl)cc(NC(=O)c2cnn(-c3ncccc3OCc3cccc(O)c3)c2)c1` [Example 179] is 0.997 µM.
On the same count and under the same terms, the figure for `CCS(=O)(=O)Nc1cc(Cl)cc(NC(=O)c2cc(-c3ncccn3)n(C)c2)c1` [Example 173, N-(3-chloro-5-(ethylsulfonamido)phenyl)-1-methyl-5-(pyrimidin-2-yl)-1H-pyrrole-3-carboxamide] is 0.118 µM.
On the same count and under the same terms, the same measure for `CS(=O)(=O)Nc1cc(Cl)cc(NC(=O)c2cnn(-c3ncccc3C#N)c2)c1` [Example 46]: 2.25 µM; for `CS(=O)(=O)Nc1cc(Cl)cc(NC(=O)c2cnn(-c3ccc(N4CCCC4=O)cn3)c2)c1` [Example 90]: 1.06 µM.
Regarding `CS(=O)(=O)Nc1cc(Br)cc(NC(=O)c2cnn(-c3cccc(C(F)F)n3)c2)c1` [Example 56], the half-maximal effective concentration (EC50) was 7.43 µM.
Same read-out and setting: the same measure for `CC1(C)CC(n2cc(C(=O)Nc3cc(Cl)cc(NS(C)(=O)=O)c3)cn2)CCN1` (stereo not drawn) [Example 315]: more than 10 µM; for `Cc1sc(C(=O)Nc2cc(Cl)cc(NS(C)(=O)=O)c2)cc1-c1ccccc1` [Example 11]: 0.851 µM; for `CS(=O)(=O)Nc1cc(Cl)cc(NC(=O)c2cnn(-c3ncccc3OCc3ccc(F)cc3)c2)c1` [Example 69]: 0.661 µM.

Staying with this experiment, now noted: Homo sapiens, HCT-116, circBRIP1, HCT116 cells; ^+ SyBr assay was used; read-out: DHX9 Cellular Target Engagement EC50.
As for `Cc1cc(C(=O)Nc2cc(Cl)cc(NS(C)(=O)=O)c2)cn1-c1ncc(Cl)cn1` [Example 578], the EC50 was found to be 0.491 µM.
The same measure, in the same setting: the same measure for `CS(=O)(=O)Nc1cc(Cl)cc(NC(=O)c2cc(N3CCOC3=O)cs2)c1` [Example 433]: 1.41 µM; for `Cc1cc(C(=O)Nc2cc(Cl)cc(NS(C)(=O)=O)c2)cn1-c1ncc([S+](C)[O-])cn1` (stereo not drawn) [Example 657]: 0.817 µM.
On the same count and under the same terms, the same measure for `CSc1cnc(-n2cc(C(=O)Nc3cc(Cl)cc(NS(C)(=O)=O)c3)cc2C)nc1` [Example 658]: 0.425 µM; for `CCS(=O)(=O)Nc1cc(Cl)cc(NC(=O)c2cc(-c3ncc(F)cn3)c(C3CC3)s2)c1` [Example 449]: 0.86 µM; for `Cc1sc(C(=O)Nc2cc(Cl)cc(NS(C)(=O)=O)c2)cc1-c1cn(C2CCOCC2)nn1` [Example 692]: 0.142 µM.
As to `CS(=O)(=O)Nc1cc(Cl)cc(NC(=O)c2cnn(-c3ncccc3Oc3cccnc3)c2)c1` [Example 676], the 50% effective concentration (EC50) was 0.806 µM.
As to `CCOc1cnc(-n2cc(C(=O)Nc3cc(Cl)cc(NS(C)(=O)=O)c3)cc2C(F)(F)F)nc1` [Example 693], the EC50 came out at 0.858 µM.
The same measure, in the same setting: the figure for `CS(=O)(=O)Nc1cc(Cl)cc(NC(=O)c2cc(Cl)n(-c3ncc(F)cn3)c2)c1` [Example 709] is 1.24 µM; for `CS(=O)(=O)Nc1cc(Cl)cc(NC(=O)c2cc3c(s2)CCC3Oc2cccnc2)c1` (stereo not drawn) [Example 687] it is 3.56 µM.
Same read-out and setting: the figure for `CS(=O)(=O)Nc1cc(Cl)cc(NC(=O)c2cc(C(=O)N3CCOCC3)n(-c3ccccn3)c2)c1` [Example 731] is more than 10 µM; for `CS(=O)(=O)Nc1cc(Cl)cc(NC(=O)c2cnn(C3CCCC3OCc3ccccc3)c2)c1` (stereo not drawn) [Example 424] it is 4.11 µM; for `COc1cc(F)cnc1-n1cc(C(=O)Nc2cc(Cl)cc(NS(C)(=O)=O)c2)cc1C` [Example 393] it is 0.133 µM.
Still for that read-out and setting: the same measure for `Cc1sc(C(=O)Nc2cc(Cl)cc(NS(C)(=O)=O)c2)cc1N1C(=O)N(c2ccccn2)C(C)(C)C1=O` [Example 685]: 0.769 µM.

The experiment is the same for the next values; noted with them: Homo sapiens, HCT-116, read-out: DHX9 Cellular Target Engagement EC50.
As for `CS(=O)(=O)Nc1cc(Cl)cc(NC(=O)c2cnn(-c3ncccc3NCc3ccccc3)c2)c1` [Example 168, 1-(3-(benzylamino)pyridin-2-yl)-N-(3-chloro-5-(methylsulfonamido)phenyl)-1H-pyrazole-4-carboxamide], the concentration giving a half-maximal response (EC50) was 2.13 µM.
